Test results as given in PubChem BioAssay AID2060889 (Molecular Pharmacology Branch, DTP, NCI, 2025).

System: LG0567-F671-PDC complex spheroids viability
Test: Anticancer human tumor LG0567-F671-PDC patient-derived lung adenocarcinoma cell line growth inhibition [RAS]
Conditions: for IC50: curve of first compound; for viability, T/C: stronger effect = lower value
Description: RAS pathway inhibitors in Combinations in Complex Spheroids
A high-throughput screen of multi-cell type tumor spheroids was designed to identify active combinations of RAS pathway inhibitors and targeted small molecules. Complex spheroids include a stromal component modeled by human endothelial cells (HUVEC) and fibroblasts modeled by human mesenchymal stem cells (MSCs). The concentration ranges selected for each drug and investigational agent were based upon clinically achievable concentrations if the clinical Cmax of the agent was known.
Compounds. The drugs and investigational agents: abemaciclib (NSC768073), cobimetinib (NSC768068), divarasib (GDC6063, NSC841802), docetaxel (NSC628503), GDC-1971 (RLY-1971, NSC841576), gemcitabine (NSC613327), inavolisib (NSC800729), ipatasertib (NSC767898), KB-0742 (NSC834161), MRTX-1133 (NSC836407), osimertinib (NSC779217), RMC-4630 (NSC839698), RMC-6236 (NSC851965), RMC-6291 (NSC852671), Ro-3306 (NSC812927), sapanisertib (NSC764658), SN-38 (NSC673596), staurosporine (NSC755774), SY5609 (NSC837396), and tovorafenib (DAY101, NSC766906), were obtained from the National Cancer Institute (NCI) Developmental Therapeutics Program Chemical Repository. The FDA-approved anticancer drug set is available from the NCI Developmental Therapeutics Program. […] The stock solutions were prepared in dimethyl sulfoxide (DMSO, Sigma-Aldrich, St. Louis, MO, cat. D2650) at 800-fold the tested concentration and stored at -70 degrees C prior to their use. All drugs and investigational agents were tested over a range starting from a high concentration at or near the clinical Cmax and decreasing in half-log increments. If the clinical Cmax for an agent had not been determined, the highest concentration tested was 10 microM.
Cell Culture. All cells were maintained in an incubator at 37 degrees C and 5% CO2 with 95% humidity. The PDC lines were cultured according to standard operating procedures established by the NCI PDMR. All PDCs were thawed and cultured in Matrigel-coated flasks prepared with a working solution of 1X Ham's F-12 nutrient mix, without supplementation (Invitrogen, Waltham, MA, cat. 11765054), 100 U/mL penicillin-streptomycin (Invitrogen, cat. 15140122), and 2.5% Matrigel (Corning Inc., Corning, NY, cat. 354248) for the first three passages. The 362531-283-R-J2-PDC and 782815-120-R-J1-PDC lines were cultured in 6C/Colon 1B media, which includes advanced DMEM/F-12 (Thermo Fisher Scientific, cat. 12634028), 10 mM HEPES (Thermo Fisher Scientific, cat. 15630080), 1X GlutaMAX supplement (Thermo Fisher Scientific, cat. 35050061), 0.1 mg/mL primocin (InvivoGen, San Diego, CA, cat. ant-pm-2), 10% defined fetal bovine serum, heat inactivated (HyClone Laboratories Inc., Logan, UT, cat. SH30070.03HI), 50% L-WRN conditioned media (ATCC, cat. CRL-3276), 1.25 mM N-Acetyl-L-cysteine (Sigma-Aldrich, cat. A9165), 10 mM nicotinamide (Sigma-Aldrich, cat. N0636), 1X B-27 supplement (Thermo Fisher Scientific, cat. 17504044), 1X N-2 supplement (Thermo Fisher Scientific, cat. 17502048), 50 ng/mL human EGF (Thermo Fisher Scientific, cat. PHG0311), and 10 microM Y-27632 dihydrochloride (Tocris Bioscience, cat. 1254). The K12877-001-R-J1-PDC line was cultured in 6I media, which includes all 6C/Colon 1B media plus 10 ng/mL human FGF-10 (PeproTech, cat. 100-26), 1 ng/mL human FGF-2 (PeproTech, cat. 100-18B), 1 µM prostaglandin E2 (Tocris Bioscience, cat. 2296), […] hydrocortisone (Sigma-Aldrich, cat. H4001), and […] bovine insulin (Sigma-Aldrich, cat. I6634). The K86415-001-R-J1-PDC line was cultured in 6D media, which includes all 6C/Colon 1B media components minus the L-WRN conditioned media. The 485176-168-R4-J1-PDC was cultured in PANC media, which includes all 6C/Colon 1B media plus 100 ng/mL human FGF-10 (PeproTech, cat. 100-26), 500 nM SB-431542 (Selleckchem, cat. S1067), and 10 nM gastrin (Tocris Bioscience, cat. 3006). […]

[1] = second compound 0.000949 µM, first compound 0.0316 µM
[2] = second compound 0.000949 µM, first compound 0.1 µM
[3] = second compound 0.000949 µM, first compound 0.316 µM
[4] = second compound 0.000949 µM, first compound 1 µM
[5] = second compound 0.003 µM, first compound 0.0316 µM
[6] = second compound 0.003 µM, first compound 0.1 µM
[7] = second compound 0.003 µM, first compound 0.316 µM
[8] = second compound 0.003 µM, first compound 1 µM
[9] = second compound 0.00949 µM, first compound 0.0316 µM
[10] = second compound 0.00949 µM, first compound 0.1 µM
[11] = second compound 0.00949 µM, first compound 0.316 µM
[12] = second compound 0.00949 µM, first compound 1 µM
[13] = second compound 0.03 µM, first compound 0.0316 µM
[14] = second compound 0.03 µM, first compound 0.1 µM
[15] = second compound 0.03 µM, first compound 0.316 µM
[16] = second compound 0.03 µM, first compound 1 µM
[17] = second compound 0.0949 µM, first compound 0.0316 µM
[18] = second compound 0.0949 µM, first compound 0.1 µM
[19] = second compound 0.0949 µM, first compound 0.316 µM
[20] = second compound 0.0949 µM, first compound 1 µM
[21] = second compound 0.3 µM, first compound 0.0316 µM
[22] = second compound 0.3 µM, first compound 0.1 µM
[23] = second compound 0.3 µM, first compound 0.316 µM
[24] = second compound 0.3 µM, first compound 1 µM
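Note: spheroids exposed to compound for seven days before readout.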
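Throughout, for IC50: luminescence signal used as a proxy for viable cells.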

`Cc1nc(N2CCC3(CC2)COC(C)C3N)c(CO)nc1Sc1ccnc(N)c1Cl` (centres undefined) + CCn1c(-c2cccnc2C(C)OC)c2c3cc(ccc31)N1CCOC(CC(NC(=O)C(C(C)C)N(C)C(=O)C3(F)CCN(C(=O)C#CC(C)(C)N(C)C)CC3)C(=O)N3CCCC(N3)C(=O)OCC(C)(C)C2)C1 was tested, and the IC50 (second compound 0.000949 µM) was under 31.6 nM, the IC50 (second compound 0.003 µM) was under 31.6 nM and the IC50 (second compound 0.00949 µM) was under 31.6 nM. It also gave an IC50 (second compound 0.03 µM) of under 31.6 nM, an IC50 (second compound 0.0949 µM) of under 31.6 nM and an IC50 (second compound 0.3 µM) of under 31.6 nM. It also gave a viability, T/C [1] of 10.8%, a viability, T/C [2] of 7.91% and a viability, T/C [3] of 6.47%. For the same compound, the viability, T/C [4] was 4.21%, the viability, T/C (second compound 0.000949 µM, first compound 3.16 µM) was 2.97% and the viability, T/C (second compound 0.000949 µM, first compound 10 µM) was 3.86%. It also gave a viability, T/C [5] of 12%, a viability, T/C [6] of 8.89% and a viability, T/C [7] of 6.21%. It also gave a viability, T/C [8] of 4.14%, a viability, T/C (second compound 0.003 µM, first compound 3.16 µM) of 3.41% and a viability, T/C (second compound 0.003 µM, first compound 10 µM) of 2.94%. The viability, T/C [9] was 10.7%, the viability, T/C [10] was 8.42% and the viability, T/C [11] was 5.46%. It also gave a viability, T/C [12] of 3.45%, a viability, T/C (second compound 0.00949 µM, first compound 3.16 µM) of 2.86% and a viability, T/C (second compound 0.00949 µM, first compound 10 µM) of 3.85%. It also gave a viability, T/C [13] of 10.3%, a viability, T/C [14] of 6.81% and a viability, T/C [15] of 6.16%. It also gave a viability, T/C [16] of 3.36%, a viability, T/C (second compound 0.03 µM, first compound 3.16 µM) of 2.76% and a viability, T/C (second compound 0.03 µM, first compound 10 µM) of 2.27%. The viability, T/C [17] was 6.53%, the viability, T/C [18] was 6.31% and the viability, T/C [19] was 5%. It also gave a viability, T/C [20] of 3.1%, a viability, T/C (second compound 0.0949 µM, first compound 3.16 µM) of 2.61% and a viability, T/C (second compound 0.0949 µM, first compound 10 µM) of 3.31%. For the same compound, the viability, T/C [21] was 6.4%, the viability, T/C [22] was 4.69% and the viability, T/C [23] was 3.02%. For the same compound, the viability, T/C [24] was 3.78%, the viability, T/C (second compound 0.3 µM, first compound 3.16 µM) was 2.19% and the viability, T/C (second compound 0.3 µM, first compound 10 µM) was 3.11%.
Work on `C=CC(=O)N1CCN(c2nc(OCC3CCCN3C)nc3c(F)c(-c4nc(N)cc(C)c4C(F)(F)F)c(Cl)cc23)C(C)C1` (centres undefined) + CCn1c(-c2cccnc2C(C)OC)c2c3cc(ccc31)N1CCOC(CC(NC(=O)C(C(C)C)N(C)C(=O)C3(F)CCN(C(=O)C#CC(C)(C)N(C)C)CC3)C(=O)N3CCCC(N3)C(=O)OCC(C)(C)C2)C1 yielded an IC50 (second compound 0.000949 µM) of under 3.16 nM, an IC50 (second compound 0.003 µM) of under 3.16 nM and an IC50 (second compound 0.00949 µM) of under 3.16 nM. For the same compound, the IC50 (second compound 0.03 µM) was under 3.16 nM, the IC50 (second compound 0.0949 µM) was under 3.16 nM and the IC50 (second compound 0.3 µM) was under 3.16 nM. It also gave a viability, T/C (second compound 0.000949 µM, first compound 0.00316 µM) of 13.9%, a viability, T/C (second compound 0.000949 µM, first compound 0.01 µM) of 13.6% and a viability, T/C [1] of 13.3%. It also gave a viability, T/C [2] of 14.4%, a viability, T/C [3] of 15.2% and a viability, T/C [4] of 15.5%. For the same compound, the viability, T/C (second compound 0.003 µM, first compound 0.00316 µM) was 12.5%, the viability, T/C (second compound 0.003 µM, first compound 0.01 µM) was 14.6% and the viability, T/C [5] was 13.8%. For the same compound, the viability, T/C [6] was 13.8%, the viability, T/C [7] was 19.5% and the viability, T/C [8] was 15.4%. The viability, T/C (second compound 0.00949 µM, first compound 0.00316 µM) was 15.2%, the viability, T/C (second compound 0.00949 µM, first compound 0.01 µM) was 14.1% and the viability, T/C [9] was 12.8%. It also gave a viability, T/C [10] of 14.5%, a viability, T/C [11] of 14.1% and a viability, T/C [12] of 14.4%. The viability, T/C (second compound 0.03 µM, first compound 0.00316 µM) was 13.6%, the viability, T/C (second compound 0.03 µM, first compound 0.01 µM) was 13.9% and the viability, T/C [13] was 14.8%. For the same compound, the viability, T/C [14] was 13.3%, the viability, T/C [15] was 13.4% and the viability, T/C [16] was 15.1%. It also gave a viability, T/C (second compound 0.0949 µM, first compound 0.00316 µM) of 12.6%, a viability, T/C (second compound 0.0949 µM, first compound 0.01 µM) of 12.8% and a viability, T/C [17] of 11.9%. The viability, T/C [18] was 12.3%, the viability, T/C [19] was 12.9% and the viability, T/C [20] was 12.4%. For the same compound, the viability, T/C (second compound 0.3 µM, first compound 0.00316 µM) was 9.04%, the viability, T/C (second compound 0.3 µM, first compound 0.01 µM) was 8.65% and the viability, T/C [21] was 10.4%. It also gave a viability, T/C [22] of 13.6%, a viability, T/C [23] of 12.6% and a viability, T/C [24] of 11.6%.
